# Bridge positions count the residues as written; N and C are the ends. Square brackets hold non-standard residues; d marks the D form. Peptide text beside a SMILES is read from it. * marks the point of attachment. Trp(1-CH2COOH) = N[C@@H](Cc1cn(CC(=O)O)c2ccccc12)C(=O)O; NMePhe(4-COOH) = CN[C@@H](Cc1ccc(C(=O)O)cc1)C(=O)O; Ala(2-NH2-4-pyridyl) = Nc1cc(C[C@H](N)C(=O)O)ccn1; Nle(6-morpholino) = N[C@@H](CCCCN1CCOCC1)C(=O)O; Trp(7-aza) = N[C@@H](Cc1c[nH]c2ncccc12)C(=O)O; NMePhe(3-Cl) = CN[C@@H](Cc1cccc(Cl)c1)C(=O)O; 3Pal(6-NH2) = Nc1ccc(C[C@H](N)C(=O)O)cn1; NMeW = CN[C@@H](Cc1c[nH]c2ccccc12)C(=O)O; Lys(N3) = [N-]=[N+]=NCCCC[C@H](N)C(=O)O; NMeY = CN[C@@H](Cc1ccc(O)cc1)C(=O)O; Nva(3-Et) = CCC(CC)[C@H](N)C(=O)O; NMeF = CN[C@@H](Cc1ccccc1)C(=O)O; 4Pal = N[C@@H](Cc1ccncc1)C(=O)O; PEG4 = NCCOCCOCCOCCOCCC(=O)O; Carboxymethyl = O=C(O)C*
# Tests used:
# [1] = molecular target: T1, human transferrin receptor (hTfR) (Homo sapiens, UniProt P02786); assay: SPR measurement under pH 6.0 conditions (Biacore T200, NTA chip, immobilized hTfR); format: binding; conditions: read-out: hTfR SPR pH6.0 KD
# [2] = molecular target: T1, human transferrin receptor (hTfR); assay: SPR measurement under pH 7.4 conditions (Biacore T200, CM3 chip, hTfR captured by His Tag antibody); format: binding; conditions: read-out: hTfR SPR pH7.4 KD
# [3] = SPR, pH 6.0, peptide with the linker named in the table
# [4] = SPR, pH 7.4, peptide with the linker named in the table
# T1 sequence (P02786 whole entry): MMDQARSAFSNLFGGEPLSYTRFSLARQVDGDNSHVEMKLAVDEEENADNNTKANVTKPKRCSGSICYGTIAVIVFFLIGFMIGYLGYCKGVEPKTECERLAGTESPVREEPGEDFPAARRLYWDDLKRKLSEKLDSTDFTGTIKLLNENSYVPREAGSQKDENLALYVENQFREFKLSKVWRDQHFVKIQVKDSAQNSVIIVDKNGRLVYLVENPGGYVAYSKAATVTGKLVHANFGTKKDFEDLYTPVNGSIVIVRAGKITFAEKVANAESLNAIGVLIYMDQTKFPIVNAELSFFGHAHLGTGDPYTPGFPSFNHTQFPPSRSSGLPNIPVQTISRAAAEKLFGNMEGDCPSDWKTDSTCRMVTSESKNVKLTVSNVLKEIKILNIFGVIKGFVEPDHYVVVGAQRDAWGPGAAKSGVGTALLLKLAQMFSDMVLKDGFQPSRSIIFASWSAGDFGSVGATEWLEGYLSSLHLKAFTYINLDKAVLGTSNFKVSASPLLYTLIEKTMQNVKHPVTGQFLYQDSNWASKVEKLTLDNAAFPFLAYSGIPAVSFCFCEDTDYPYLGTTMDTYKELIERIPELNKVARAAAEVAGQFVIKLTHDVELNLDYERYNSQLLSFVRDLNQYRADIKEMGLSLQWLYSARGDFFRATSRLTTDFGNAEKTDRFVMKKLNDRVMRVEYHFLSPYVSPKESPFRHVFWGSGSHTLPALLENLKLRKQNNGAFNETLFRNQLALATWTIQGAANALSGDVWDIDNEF
Compound,"Kd ([1]; SPR, pH 6.0, Table 1-3-2-2) [nM]","Kd ([2]; SPR, pH 7.4, Table 1-3-2-2) [nM]","Kd [1, 3] [nM]","Kd [2, 4] [nM]",other results
CC[C@H](C)[C@@H]1NC(=O)[C@H](Cc2ccc(OC)cc2)NC(=O)[C@H](Cc2ccc(N)nc2)NC(=O)[C@H](CC(N)=O)NC(=O)[C@H](Cc2c[nH]c3ncccc23)NC(=O)[C@H](C(C)C)NC(=O)[C@H](Cc2cccc(Cl)c2)N(C)C(=O)[C@H](C(C)C)NC(=O)[C@H](C)NC(=O)CSC[C@@H](C(=O)NCCOCCOCCOCCOCCC(N)=O)NC(=O)[C@H](Cc2ccc(O)cc2)N(C)C(=O)[C@H](Cc2ccncc2)NC(=O)[C@H](CCCNC(=N)N)NC(=O)[C@H](CCCCN2CCOCC2)NC(=O)[C@H]([C@@H](C)CC)NC1=O [compound 2] ({CH2CO}-AV[NMePhe(3-Cl)]V[Trp(7-aza)]N[3Pal(6-NH2)]Y(Me)II[Nle(6-morpholino)]R[4Pal][NMeY]C[PEG4]-NH2; thioether N-15),–,–,–,–,"Kd ([1]; pH 6.0, single-cycle kinetics): 16.2 nM; Kd ([2]; pH 7.4, single-cycle kinetics): 0.888 nM"
CC[C@H](C)[C@@H]1NC(=O)[C@H](Cc2ccc(OC)cc2)NC(=O)[C@H](Cc2ccc(N)nc2)NC(=O)[C@H](CC(N)=O)NC(=O)[C@H](Cc2c[nH]c3ccccc23)N(C)C(=O)[C@H](C(C)C)NC(=O)[C@H](Cc2cccc(Cl)c2)N(C)C(=O)[C@H](C(C)C)NC(=O)[C@H](C)NC(=O)CSC[C@@H](C(=O)NCCOCCOCCOCCOCCC(N)=O)NC(=O)[C@H](Cc2ccc(O)cc2)N(C)C(=O)[C@H](Cc2ccccc2)NC(=O)[C@H](CCCNC(=N)N)NC(=O)[C@H](CCC(N)=O)NC(=O)[C@H]([C@@H](C)CC)NC1=O [compound 170] ({CH2CO}-AV[NMePhe(3-Cl)]V[NMeW]N[3Pal(6-NH2)]Y(Me)IIQRF[NMeY]C[PEG4]-NH2; thioether N-15),–,–,–,–,"Kd ([1]; pH 6.0, single-cycle kinetics): 7.61 nM; Kd ([2]; pH 7.4, single-cycle kinetics): 1.34 nM"
CC[C@H](C)[C@@H]1NC(=O)[C@H](Cc2ccc(OC)cc2)NC(=O)[C@H](Cc2ccc(N)nc2)NC(=O)[C@H](CC(N)=O)NC(=O)[C@H](Cc2c[nH]c3ncccc23)NC(=O)[C@H](C(C)C)NC(=O)[C@H](Cc2cccc(Cl)c2)N(C)C(=O)[C@H](C(C)C)NC(=O)[C@H](C)NC(=O)CSC[C@@H](C(=O)NCC(=O)NCC(=O)NCC(=O)NCC(=O)N[C@@H](CO)C(=O)N[C@@H](CO)C(=O)N[C@@H](CCCCN=[N+]=[N-])C(N)=O)NC(=O)[C@H](Cc2ccc(O)cc2)N(C)C(=O)[C@H](Cc2ccncc2)NC(=O)[C@H](CCCCN2CCOCC2)NC(=O)[C@H](CCCCN2CCOCC2)NC(=O)[C@H]([C@@H](C)CC)NC1=O [compound 192],10.5,1.49,–,–,–
CCC(CC)[C@@H]1NC(=O)[C@H](Cc2ccc(OCC(=O)O)cc2)NC(=O)[C@H](Cc2ccc(O)cc2)NC(=O)[C@H](CC(N)=O)NC(=O)[C@H](Cc2cn(CC(=O)O)c3ccccc23)NC(=O)[C@H](C(C)C)NC(=O)[C@H](Cc2cccc(Cl)c2)N(C)C(=O)[C@H](C(C)C)NC(=O)[C@H](C)NC(=O)CSC[C@@H](C(=O)NCCOCCOCCOCCOCCC(N)=O)NC(=O)[C@H](Cc2ccc(O)cc2)N(C)C(=O)[C@H](Cc2ccnc(N)c2)NC(=O)[C@H](CCCNC(=N)N)NC(=O)[C@H](CCC(N)=O)NC(=O)[C@H]([C@@H](C)CC)NC1=O [compound 104] ({CH2CO}-AV[NMePhe(3-Cl)]V[Trp(1-CH2COOH)]NYY(Carboxymethyl)[Nva(3-Et)]IQR[Ala(2-NH2-4-pyridyl)][NMeY]C[PEG4]-NH2; thioether N-15),–,–,78.2,10.7,–
CC[C@H](C)[C@@H]1NC(=O)[C@H](Cc2ccc(OC)cc2)NC(=O)[C@H](Cc2ccc(N)nc2)NC(=O)[C@H](CC(N)=O)NC(=O)[C@H](Cc2cnc3ccccn23)NC(=O)[C@H](C(C)C)NC(=O)[C@H](Cc2cccc(Cl)c2)N(C)C(=O)[C@H](C(C)C)NC(=O)[C@H](C)NC(=O)CSC[C@@H](C(=O)NCC(=O)N[C@H](CCC(=O)O)C(=O)N[C@H](CCC(=O)O)C(=O)N[C@H](CCC(=O)O)C(=O)N[C@H](CO)C(=O)N[C@H](CO)C(=O)N[C@@H](CCCCN=[N+]=[N-])C(N)=O)NC(=O)[C@H](Cc2ccc(O)cc2)N(C)C(=O)[C@H](Cc2ccncc2)NC(=O)[C@H](CCCNC(=N)N)NC(=O)[C@H](CCCNC(=N)N)NC(=O)[C@H]([C@@H](C)CC)NC1=O [compound 185],381,28.7,–,–,–
CCC(CC)[C@@H]1NC(=O)[C@H](Cc2ccc(O)cc2)NC(=O)[C@H](Cc2ccc(N)nc2)NC(=O)[C@H](CC(N)=O)NC(=O)[C@H](Cc2c[nH]c3ccccc23)N(C)C(=O)[C@H](C(C)C)NC(=O)[C@H](Cc2ccccc2)N(C)C(=O)[C@H](C(C)C)NC(=O)[C@H](C)NC(=O)CSC[C@@H](C(=O)NCC(=O)N[C@H](CCC(=O)O)C(=O)N[C@H](CCC(=O)O)C(=O)N[C@H](CCC(=O)O)C(=O)N[C@H](CO)C(=O)N[C@H](CO)C(=O)N[C@@H](CCCCN=[N+]=[N-])C(N)=O)NC(=O)[C@H](Cc2ccc(C(=O)O)cc2)N(C)C(=O)[C@H](Cc2ccc(O)cc2)NC(=O)[C@H](CCCNC(=N)N)NC(=O)[C@H](CCCCN)NC(=O)[C@H]([C@@H](C)CC)NC1=O [compound 188] ({CH2CO}-AV[NMeF]V[NMeW]N[3Pal(6-NH2)]Y[Nva(3-Et)]IKRY[NMePhe(4-COOH)]CG[dE][dE][dE][dS][dS][Lys(N3)]-NH2; thioether N-15),175,34,–,–,–
CCC(CC)[C@@H]1NC(=O)[C@H](Cc2ccc(OCC(=O)O)cc2)NC(=O)[C@H](Cc2ccc(O)cc2)NC(=O)[C@H](CC(N)=O)NC(=O)[C@H](Cc2cn(CC(=O)O)c3ccccc23)NC(=O)[C@H](C(C)C)NC(=O)[C@H](Cc2cccc(Cl)c2)N(C)C(=O)[C@H](C(C)C)NC(=O)[C@H](C)NC(=O)CSC[C@@H](C(=O)NCCOCCOCCOCCOCCC(N)=O)NC(=O)[C@H](Cc2ccc(O)cc2)N(C)C(=O)[C@H](Cc2ccc(N)nc2)NC(=O)[C@H](CCCNC(=N)N)NC(=O)[C@H](CCC(N)=O)NC(=O)[C@H]([C@@H](C)CC)NC1=O [compound 102] ({CH2CO}-AV[NMePhe(3-Cl)]V[Trp(1-CH2COOH)]NYY(Carboxymethyl)[Nva(3-Et)]IQR[3Pal(6-NH2)][NMeY]C[PEG4]-NH2; thioether N-15),–,–,76.4,9.81,–
CCC(CC)[C@@H]1NC(=O)[C@H](Cc2ccc(O)cc2)NC(=O)[C@H](Cc2ccc(N)nc2)NC(=O)[C@H](CC(N)=O)NC(=O)[C@H](Cc2c[nH]c3ccccc23)N(C)C(=O)[C@H](C(C)C)NC(=O)[C@H](Cc2cccc(Cl)c2)N(C)C(=O)[C@H](C(C)C)NC(=O)[C@H](C)NC(=O)CSC[C@@H](C(=O)NCCOCCOCCOCCOCCC(N)=O)NC(=O)[C@H](Cc2ccc(O)cc2)N(C)C(=O)[C@H](Cc2ccc(O)cc2)NC(=O)[C@H](CCCNC(=N)N)NC(=O)[C@H](CCCCN)NC(=O)[C@H]([C@@H](C)CC)NC1=O [compound 134] ({CH2CO}-AV[NMePhe(3-Cl)]V[NMeW]N[3Pal(6-NH2)]Y[Nva(3-Et)]IKRY[NMeY]C[PEG4]-NH2; thioether N-15),–,–,3.95,4.58,–
CC[C@H](C)[C@@H]1NC(=O)[C@H](Cc2ccc(OC)cc2)NC(=O)[C@H](Cc2ccc(O)cc2)NC(=O)[C@H](CC(N)=O)NC(=O)[C@H](Cc2c[nH]c3ncccc23)NC(=O)[C@H](C(C)C)NC(=O)[C@H](Cc2cccc(Cl)c2)N(C)C(=O)[C@H](C(C)C)NC(=O)[C@H](C)NC(=O)CSC[C@@H](C(=O)NCCOCCOCCOCCOCCC(N)=O)NC(=O)[C@H](Cc2ccc(O)cc2)N(C)C(=O)[C@H](Cc2cccc(C(=O)NCCOCCOCCOCCOCCOCCOCCOCCOCCC(=O)O)c2)NC(=O)[C@H](CCCNC(=N)N)NC(=O)[C@H](CCC(=O)NCCOCCOCCOCCOCCOCCOCCOCCOCCC(=O)O)NC(=O)[C@H]([C@@H](C)CC)NC1=O [compound 142],–,–,17.8,2.15,–

# Source: patent EP4667483A1, “HUMAN TRANSFERRIN RECEPTOR-BINDING PEPTIDE” (JCR Pharmaceuticals Co., Ltd., priority 2023, dated 2024)
